Results on 18 compounds are retold here after patent US20240158393A1, “PYRIDONE COMPOUNDS AND METHODS OF USE” (Exelixis, Inc., priority 2021, published 2024).

Counter-ions that a name gives are not always drawn.

For the test, the target named is T1, Human Axl (Homo sapiens, UniProt P30530).
T1 construct: Human AXL (residues 464-885)
T1 sequence (P30530 1-894 Q764R): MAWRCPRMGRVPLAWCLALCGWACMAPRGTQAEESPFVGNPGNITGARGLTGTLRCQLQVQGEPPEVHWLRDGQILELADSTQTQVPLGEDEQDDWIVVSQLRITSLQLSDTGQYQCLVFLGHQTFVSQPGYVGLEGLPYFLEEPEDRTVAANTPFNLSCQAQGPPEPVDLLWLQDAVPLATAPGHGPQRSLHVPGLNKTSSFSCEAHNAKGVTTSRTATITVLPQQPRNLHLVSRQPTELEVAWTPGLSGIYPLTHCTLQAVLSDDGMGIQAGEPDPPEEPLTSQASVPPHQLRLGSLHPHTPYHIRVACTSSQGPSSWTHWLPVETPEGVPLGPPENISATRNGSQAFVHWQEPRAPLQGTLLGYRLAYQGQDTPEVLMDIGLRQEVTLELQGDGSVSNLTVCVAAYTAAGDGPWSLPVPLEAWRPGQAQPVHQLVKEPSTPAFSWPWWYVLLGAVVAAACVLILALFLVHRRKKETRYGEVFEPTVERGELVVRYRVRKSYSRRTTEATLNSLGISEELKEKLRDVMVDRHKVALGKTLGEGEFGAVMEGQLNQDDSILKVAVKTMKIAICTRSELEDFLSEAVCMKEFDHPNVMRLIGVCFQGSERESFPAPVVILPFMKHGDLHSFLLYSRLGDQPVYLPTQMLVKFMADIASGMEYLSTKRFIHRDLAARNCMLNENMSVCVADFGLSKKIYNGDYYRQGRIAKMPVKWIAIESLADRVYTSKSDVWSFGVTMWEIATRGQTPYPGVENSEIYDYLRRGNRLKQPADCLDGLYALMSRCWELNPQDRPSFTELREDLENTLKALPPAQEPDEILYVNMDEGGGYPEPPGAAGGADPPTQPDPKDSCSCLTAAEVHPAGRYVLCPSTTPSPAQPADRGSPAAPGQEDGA
Kind of test: Human AXL kinase assay (33P radiometric / HTRF KinEase). Format: biochemical. Particulars: protocols of Examples A-1 and/or A-2. Here is the method: Kinase activity and compound inhibition were investigated using the ^33P-Phosphoryl transfer radiometric kinase assay, performed using the KinaseProfiler™ service of Eurofins Pharma Discovery Services UK Limited. Dose-response experiments were performed using nine compound concentrations in a 96-well microtiter plate. For each assay, all compounds were prepared to a 50× final assay concentration (50 μM) in 100% DMSO, then diluted in a half-log series, with the final top concentration at 1 μM. This working stock of the compound was added to the assay well as the first component in the reaction, followed by the remaining components as detailed in the following assay protocols below. The positive control wells (100% kinase activity) contain all components of the reaction including 2% DMSO (control for solvent effects), except the compound of interest. Blank wells contain all components of the reaction, with the reference inhibitor, staurosporine. This reference compound was used to abolish kinase activity and generated the 0% kinase activity base-line. IC50 values were calculated by nonlinear regression analysis using the sigmoidal dose-response (variable slope) curve fit on XLFit version 5.3 (ID Business Solutions).
Kinase activity and compound inhibition were also investigated using the HTRF® KinEase assay (Cisbio Cat #62TKOPEB) per manufacturer's instructions. In short, compounds were delivered in 300 nL volumes at 10 different concentrations in DMSO (3% final) to empty 384-well assay plates (Corning cat #3824). A mixture of enzyme, 1 μM biotinylated peptide substrate, and buffer in 10 μL volume was added. The assay was started upon the addition of ATP (at Km). The 10 μL reaction was incubated at room temperature. The reaction was stopped upon the addition of detection buffer containing streptavidin-XL665 (5 μL) and TK antibody-Eu3+(5 μL). After a 60 min incubation at room temperature, the fluorescence at 665 nm and 620 nm was read on an Envision microplate reader (Perkin Elmer).
Kinase activity normalized to DMSO (100% activity) and reference compound at 1 μM and (0% activity) was calculated using the fluorescence ratio […]. IC50 values were calculated by nonlinear regression analysis using a 4-parameter logistic curve fit in ActivityBase XE (IDBS).
Example A-1: Human Axl (residues H473-A894 with Q764R, 161 nM) was incubated with 8 mM MOPS pH 7.0, 0.2 mM EDTA, 250 μM KKSRGDYMTMQIG (SEQ ID NO:1), 10 mM magnesium acetate and 10 μM [γ-^33P-ATP]. The reaction was initiated by the addition of the Mg/ATP mix. After incubation for 40 minutes at room temperature, the reaction was stopped by the addition of phosphoric acid to a concentration of 0.5%. A reaction aliquot of 10 μL was then spotted onto a P30 filtermat and washed four times for 4 minutes in 0.425% phosphoric acid and once in methanol prior to drying and scintillation counting. Incorporated ^33P was measured using the Wallac Microbeta scintillation counter (Perkin Elmer).
Example A-2: Human AXL (residues 464-885; CarnaBio, 1 ng/well) was also incubated with enzymatic buffer (Cisbio) supplemented with 5 mM MgCl2, 1 mM DTT, and Supplemental Enzymatic Buffer (SEB; Cisbio). The mixture was added to the pre-plated compounds. The reaction was initiated upon addition of ATP at Km (1.0 μM). The reaction was incubated at room temperature for 50 min and stopped upon the addition of SA-XL665 and TK-antibody both diluted in EDTA-containing kinase detection buffer (Cisbio). The kinase activity was calculated as stated above and the IC50 values were reported.
For `COc1cc2nccc(Oc3ccc(NC(=O)c4c(C)nc(C)c(C5=CCCCC5)c4O)cc3F)c2nc1OC` [Compound 2-3, 5-(Cyclohexen-1-yl)-N-[4-[(6,7-dimethoxy-1,5-naphthyridin-4-yl)oxy]-3-fluorophenyl]-4-hydroxy-2,6-dimethylpyridine-3-carboxamide], the IC50 was ≤ 100 nM.
As to `COc1cc2nccc(Oc3ccc(NC(=O)c4c5n(c(C)c(C6=CCOCC6)c4=O)CCOC5)cc3F)c2nc1OC` [Compound 79, 7-(3,6-Dihydro-2H-pyran-4-yl)-N-[4-[(6,7-dimethoxy-1,5-naphthyridin-4-yl)oxy]-3-fluorophenyl]-6-methyl-8-oxo-3,4-dihydro-1H-pyrido[2,1-c][1,4]oxazine-9-carboxamide], the 50% inhibitory concentration (IC50) was ≤ 100 nM.
Consider `COc1cnc2c(Oc3ccc(NC(=O)c4cnc(C)c(C5=CCOCC5)c4O)cc3)ccnc2c1` [Compound 7, 5-(3,6-Dihydro-2H-pyran-4-yl)-4-hydroxy-N-[4-[(7-methoxy-1,5-naphthyridin-4-yl)oxy]phenyl]-6-methylpyridine-3-carboxamide], for which the IC50 is ≤ 100 nM.
For `COc1cc2nccc(Oc3ccc(NC(=O)c4cn(CCF)c(C)c(C5=CCCC5)c4=O)cc3F)c2nc1OC` [Compound 11, 5-(Cyclopenten-1-yl)-N-[4-[(6,7-dimethoxy-1,5-naphthyridin-4-yl)oxy]-3-fluorophenyl]-1-(2-fluoroethyl)-6-methyl-4-oxopyridine-3-carboxamide], the IC50 was ≤ 100 nM.
In the case of `C=C(C)c1c(C)nc(C)c(C(=O)Nc2cc(F)c(Oc3ccnc4cc(OC)c(OC)nc34)cc2F)c1O` [Compound 6, N-[4-[(6,7-Dimethoxy-1,5-naphthyridin-4-yl)oxy]-2,5-difluorophenyl]-4-hydroxy-2,6-dimethyl-5-prop-1-en-2-ylpyridine-3-carboxamide], the IC50 is ≤ 100 nM.
For the compound `COc1cnc2c(Oc3ccc(NC(=O)c4cn(C)c(C)c(C5=CCOCC5)c4=O)cc3F)ccnc2c1` [Compound 12, 5-(3,6-Dihydro-2H-pyran-4-yl)-N-[3-fluoro-4-[(7-methoxy-1,5-naphthyridin-4-yl)oxy]phenyl]-1,6-dimethyl-4-oxopyridine-3-carboxamide], the concentration for half-maximal inhibition (IC50) is ≤ 100 nM.
Consider `CNC(=O)c1c(C)nc(C)c(C(=O)Nc2ccc(Oc3ccnc4cc(OC)c(OC)nc34)c(F)c2)c1O` [Compound 97, 3-N-[4-[(6,7-Dimethoxy-1,5-naphthyridin-4-yl)oxy]-3-fluorophenyl]-4-hydroxy-5-N,2,6-trimethylpyridine-3,5-dicarboxamide], for which the IC50 is ≤ 100 nM.
As to `COc1cc2nccc(Oc3ccc(NC(=O)c4c(C)nc(C)c(C(N)=O)c4O)cc3)c2nc1OC` [Compound 85, 3-N-[4-[(6,7-Dimethoxy-1,5-naphthyridin-4-yl)oxy]phenyl]-4-hydroxy-2,6-dimethylpyridine-3,5-dicarboxamide], the half-maximal inhibitory concentration (IC50) was > 300 nM.
With `COc1cc2nccc(Oc3ccc(NC(=O)c4cnc(C)c(C5=CCCC5)c4O)cc3F)c2cc1OC` [Compound 18, 5-(Cyclopenten-1-yl)-N-[4-(6,7-dimethoxyquinolin-4-yl)oxy-3-fluorophenyl]-4-hydroxy-6-methylpyridine-3-carboxamide], the IC50 was ≤ 100 nM.
With `COc1cc2nccc(Oc3ccc(NC(=O)c4cn(C)c(C)c(C5CCCC5)c4=O)cc3F)c2nc1OC` [Compound 2, 5-Cyclopentyl-N-[4-[(6,7-dimethoxy-1,5-naphthyridin-4-yl)oxy]-3-fluorophenyl]-1,6-dimethyl-4-oxopyridine-3-carboxamide], the IC50 is ≤ 100 nM.
For `COc1cc2nccc(Oc3ccc(NC(=O)c4c(C)n(C)c(C)c(/C=C/C5CC5)c4=O)cc3F)c2nc1OC` [Compound 50, 5-[(E)-2-Cyclopropylethenyl]-N-[4-[(6,7-dimethoxy-1,5-naphthyridin-4-yl)oxy]-3-fluorophenyl]-1,2,6-trimethyl-4-oxopyridine-3-carboxamide], the IC50 is ≤ 100 nM.
As to `COCCOc1cc2nccc(Oc3ccc(NC(=O)c4c(C)n(C)c(C)c(/C=C/C5CC5)c4=O)cc3F)c2nc1OC` [Compound 51, 5-[(E)-2-Cyclopropylethenyl]-N-[3-fluoro-4-[[6-methoxy-7-(2-methoxyethoxy)-1,5-naphthyridin-4-yl]oxy]phenyl]-1,2,6-trimethyl-4-oxopyridine-3-carboxamide], the IC50 was ≤ 100 nM.
In the case of `COCCOc1cc2nccc(Oc3ccc(NC(=O)c4c(C)nc(C)c(C5=CCOCC5)c4O)cc3F)c2nc1OC` [Compound 43, 5-(3,6-Dihydro-2H-pyran-4-yl)-N-[3-fluoro-4-[[6-methoxy-7-(2-methoxyethoxy)-1,5-naphthyridin-4-yl]oxy]phenyl]-4-hydroxy-2,6-dimethylpyridine-3-carboxamide] it was ≤ 100 nM; in that of `COc1cc2nccc(Oc3ccc(NC(=O)c4c(C)nc(C)c(C5=CCCC5)c4O)cc3F)c2nc1OC` [Compound 1-2, 5-(Cyclopenten-1-yl)-N-[4-[(6,7-dimethoxy-1,5-naphthyridin-4-yl)oxy]-3-fluorophenyl]-4-hydroxy-2,6-dimethylpyridine-3-carboxamide hydrochloride], ≤ 100 nM; in that of `COCCOc1cc2nccc(Oc3ccc(NC(=O)c4cnc(C)c(/C=C/C(C)(C)C)c4O)cc3F)c2nc1OC` [Compound 40, 5-[(E)-3,3-Dimethylbut-1-enyl]-N-[3-fluoro-4-[[6-methoxy-7-(2-methoxyethoxy)-1,5-naphthyridin-4-yl]oxy]phenyl]-4-hydroxy-6-methylpyridine-3-carboxamide], ≤ 100 nM.
With `COc1cnc2c(Oc3ccc(NC(=O)c4cnc(C)c(C5=CCCC5)c4O)cc3F)ccnc2c1` [Compound 1-9, 5-(Cyclopenten-1-yl)-N-[3-fluoro-4-[(7-methoxy-1,5-naphthyridin-4-yl)oxy]phenyl]-4-hydroxy-6-methylpyridine-3-carboxamide], the IC50 is ≤ 100 nM.
Take `COc1cc2nccc(Oc3ccc(NC(=O)c4c(C)cc(C)n(C5=CCCC5)c4=O)cc3F)c2nc1OC` [Compound 14, 1-(Cyclopenten-1-yl)-N-[4-[(6,7-dimethoxy-1,5-naphthyridin-4-yl)oxy]-3-fluorophenyl]-4,6-dimethyl-2-oxopyridine-3-carboxamide]: the IC50 is ≤ 100 nM.
On to `COc1cc2nccc(Oc3ccc(NC(=O)c4c(C)n(C)c(C)c(N5CCOCC5)c4=O)cc3F)c2nc1OC` [Compound 88, N-[4-[(6,7-Dimethoxy-1,5-naphthyridin-4-yl)oxy]-3-fluorophenyl]-1,2,6-trimethyl-5-morpholin-4-yl-4-oxopyridine-3-carboxamide], for which the half-maximal inhibitory concentration (IC50) is ≤ 100 nM.
